# Experimental data taken from US20160220602A1, “USE OF CHINESE MEDICINE PREPARATION IN PREPARING DRUG FOR PREVENTING AND/OR TREATING CROHN'S DISEASE” (TASLY PHARMACEUTICAL GROUP CO., LTD., priority 2013, published 2016).
# Key:
# Assay type in all cases: in vivo, SD rats
# IL-4 = test: Serum IL-4 by ELISA, TNBS model rats; conditions: 100 mg/kg once per day, 21 days
# Experimental: Grouping: experiment was carried out by using two ways of intracolonic and intragastric administrations. […] There were 10 rats each group. Method for establishing rat model: referring to Morris method, TNBS was used to induce the SD rat Crohn's disease model (abbreviated as “TNBS model”). 24 hours before modeling, the SD rats were fasted but water was given. […] The rats of blank control group were normally fed with free access to water and the same volume of normal saline was given in the same administration routes by referring to the dosage regime of aforementioned treatment groups. The rats of model group were administrated with the same volume of normal saline in the same administration routes. […] (2) Serum indices: after final administration, the testing rats were fasted but given water. 24 hours later, blood was gained from abdominal aorta. Serum IFN-γ, IL-1, IL-4, IL-10 and Gln in intestinal mucosa were determined by enzyme-linked immunosorbent assay (ELISA) in rats.
# Gln in intestinal mucosa = Gln in intestinal mucosa by ELISA, OXZ model rats; conditions: 100 mg/kg once per day, 11 days
# Experimental: Grouping: the experiment was carried out by using two ways of intracolonic and intragastric administration. […] There were 10 rats each group. Method for establishing rat model: referring to the Heller method, OXZ was used to induce the SD rat Crohn's disease model (abbreviated as “OXZ model”). Neck and back skin of rats were shaved (2 cm×2 cm). Ethanol was used to prepare 5% (w/v) OXZ solution, and 0.3 ml resultant OXZ solution was dripped on the skin of rats. After the solution was air-dried naturally, skin allergy occurred in rats. The sensitized rats were adaptively raised for 5 days, […] anesthetized by intraperitoneal injection of pentobarbital sodium. […] After completion, the rats were inverted by lifting tails for 60s to make the solution totally absorbed. […] If the rats manifested dark hair color, body weight loss, poor appetite, lassitude, watery stool or diarrhea, the model establishment was success. Administration method: after successful model establishment by OXZ, the drug was given to rats. The TCM preparation k saline solutions at corresponding dose were administered to the groups of preparation k of all doses and the […] saline solution, a positive drug, administrated to the positive control group. […] Serum IFN-γ, IL-4, and Gln in intestinal mucosa were determined by ELISA in rats.
# [1] = test system: OXZ-induced SD rat Crohn's disease model; test: Colon gross damage and histopathological score, OXZ model rats; conditions: 100 mg/kg
# Experimental: Grouping: the experiment was carried out by using two ways of intracolonic and intragastric administration. […] There were 10 rats each group. Method for establishing rat model: referring to the Heller method, OXZ was used to induce the SD rat Crohn's disease model (abbreviated as “OXZ model”). Neck and back skin of rats were shaved (2 cm×2 cm). Ethanol was used to prepare 5% (w/v) OXZ solution, and 0.3 ml resultant OXZ solution was dripped on the skin of rats. […] The sensitized rats were adaptively raised for 5 days, […] anesthetized by intraperitoneal injection of pentobarbital sodium. […] After completion, the rats were inverted by lifting tails for 60s to make the solution totally absorbed. […] If the rats manifested dark hair color, body weight loss, poor appetite, lassitude, watery stool or diarrhea, the model establishment was success. Administration method: after successful model establishment by OXZ, the drug was given to rats. The TCM preparation k saline solutions at corresponding dose were administered to the groups of preparation k of all doses and the […] saline solution, a positive drug, administrated to the positive control group. The rats of blank control group were normally fed, given with water and the same volume of normal saline was given in the same administration routes by referring to the dosage regime of aforesaid treatment groups. The rats of model group were administrated with the same volume of normal saline in the same administration routes. The dose of each group was as follows: […] group at 100 mg/kg rat weight, the TCM preparation k high-dose group at 2.023 g raw medicine/kg rat weight, the middle-dose group at 1.012 g raw medicine/kg rat weight and the low-dose group at 0.506 g raw medicine/kg rat weight.
# [2] = Table 18: OXZ-model rats, route not printed in title
smiles,measurement,setting,value
"Nc1ccc(O)c(C(=O)O)c1 [mesalamine, Mesalamine]",IL-4 serum content (Mean ± SD),IL-4; intracolonic,96.80 ± 27.51 pg/mL
same,IL-4 serum content (Mean ± SD),IL-4; intragastric,75.80 ± 17.47 pg/mL
same,Gln in intestinal mucosa (Mean ± SD),Gln in intestinal mucosa; intracolonic,124.06 ± 24.40 µmol/L
same,Gln in intestinal mucosa (Mean ± SD),Gln in intestinal mucosa; intragastric,132.59 ± 41.74 µmol/L
same,Gross damage score (Mean ± SD),"[1]; OXZ model rats, intragastric",1.700 ± 1.494
same,Gross damage score (Mean ± SD),[1]; [2],1.800 ± 1.229
same,Histopathological score (Mean ± SD),[1]; [2],3.17 ± 1.33
